Experimental data published in US9428773B2, “Methods of producing acetoin and 2,3-butanediol using photosynthetic microorganisms” (The Regents of the University of California, priority 2012, dated 2016).

What was measured:
S. elongatus [1] = test system: S. elongatus
Method: (§1) Unless otherwise specified, S. elongatus strains were cultured in BG-11 medium (45) with the addition of 50 mM NaHCO3. Cells were grown at 30° C. with rotary shaking (100 rpm) and light (55 μE s^−1 m^−2) provided by four 86 cm 20 W fluorescent tubes 5 cm above the cell cultures. Cell growth was monitored by measuring OD730.
(§2) To evaluate acetoin and 23BD toxicity, we tested the growth of S. elongatus over 72 h in the presence of 23BD or acetoin.

S. elongatus [2] = test: growth of S. elongatus over 72 h in the presence of 23BD or acetoin (toxicity)
Method: as §1, §2

S. elongatus [3] = conditions: cited from earlier work

For `CC(O)C(C)O` (centres unmarked) [23BD, 2,3-butanediol], the “growth of S. elongatus in the presence of 10 g/L 23BD” value (S. elongatus [1]) was “barely inhibited”, the “growth of S. elongatus in the presence of 30 g/L 23BD” value (S. elongatus [1]) was “still exhibited growth” and the “toxicity in S. elongatus (in words)” value (S. elongatus [1]) was “low toxicity”.
For `CC(=O)C(C)O` (centres unmarked) [acetoin], the “decrease of growth of S. elongatus” value (S. elongatus [2]; 0.2 g/L acetoin, 72 h) was “approximately 50%”, the “concentration at which growth of S. elongatus stopped” value (S. elongatus [2]; 72 h) was 1000 µg/mL and the “concentration above which toxic in S. elongatus” value (S. elongatus [2]; FIG. 2A) was “above 0.1 g/L”.
In the case of `CC(C)CO` [isobutanol], the “concentration that prevents growth of S. elongatus” value (S. elongatus [3]) is given as 1000 µg/mL.
In the case of `CC(C)C=O` [isobutyraldehyde], the “concentration that prevents growth of S. elongatus” value (S. elongatus [3]) is given as 1000 µg/mL.
